Measured values from PMC3031978 (Bioorganic & medicinal chemistry letters, 2010).
“Also recorded” adds a separate entry of the source.

What was measured:
[1] = target: T1, KOR (Homo sapiens, UniProt P41145); assay type: binding
[2] = target: T1, KOR; assay type: binding; remark: listed apart in the source
[3] = target: T1, KOR; assay type: biochemical
[4] = cited from earlier work

T1 sequence (P41145 whole entry): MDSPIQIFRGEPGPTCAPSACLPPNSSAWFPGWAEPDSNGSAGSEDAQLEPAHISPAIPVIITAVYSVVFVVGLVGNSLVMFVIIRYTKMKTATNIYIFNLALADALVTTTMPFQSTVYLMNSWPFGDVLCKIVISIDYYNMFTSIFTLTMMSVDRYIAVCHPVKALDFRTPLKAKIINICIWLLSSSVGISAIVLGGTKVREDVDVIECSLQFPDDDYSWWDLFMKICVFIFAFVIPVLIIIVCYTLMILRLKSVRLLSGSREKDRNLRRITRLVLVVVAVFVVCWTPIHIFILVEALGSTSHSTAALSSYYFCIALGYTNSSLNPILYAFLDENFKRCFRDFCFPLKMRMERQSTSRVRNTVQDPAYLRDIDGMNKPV

| SMILES | displacement of [3H]diprenorphine at KOR (in words) [1] | DOR/KOR [2] | MOR/KOR [2] | affinity at KOR (in words) [2] | agonist activity at KOR (in words) [3] | stability (in words) [4] |
| --- | --- | --- | --- | --- | --- | --- |
| COC(=O)[C@@H]1C[C@H](OC(=O)[C@H](C)N)C(=O)[C@H]2[C@@]1(C)CC[C@H]1C(=O)O[C@H](c3ccoc3)C[C@]21C [Analogue 10] | did not displace [^3H]diprenorphine; also recorded: did not displace KOR antagonist binding | >2.64 | >2.64 | μM affinity; also recorded: in a μM range |  |  |
| COC(=O)[C@@H]1C[C@H](OC(=O)[C@@H](N)C(C)C)C(=O)[C@H]2[C@@]1(C)CC[C@H]1C(=O)O[C@H](c3ccoc3)C[C@]21C [Analogue 12, 2-(2′-(S)-amino-3-methylbutanoate) salvinorin B] |  | >238 | >238 |  | full agonist |  |
| NCC(=O)O [Gly] |  |  |  |  |  | unstable |
| CNCC(=O)O [Sar] |  |  |  |  |  | unstable |
